Reference: paper PMC9841524, “Structure-Based Rational Design of Small α-Helical Peptides with Broad-Spectrum Activity against Multidrug-Resistant Pathogens” (Journal of Medicinal Chemistry, 2022)
Read-outs that look alike come from different tables or passages of the source. Where no end group is shown, it is not given here.

Columns and labels:
[1] = tested on: Bacillus cereus (ATCC 13061); details: ATCC 13061, 24 h
How it was run: (§1)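 Inoculum 10^6 CFU/mL in CAMHB against 2-fold peptide series; salt variants used 150 mM NaCl, 4.5 mM KCl, 6 mM NH4Cl, 1 mM MgCl2, 2 mM CaCl2, or 25% FBS.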

[2] = tested on: Bacillus subtilis (ATCC 6633); details: ATCC 6633, 24 h
How it was run: as §1

E. coli (ATCC 25922) = details: for MIC, E. coli (ATCC 25922): broth microdilution (CLSI), CAMHB, 37 °C, 24 h
How it was run: as §1

E. coli (ATCC BAA-2452) = details: Gram-negative, NDM-1; CLSI microdilution, CAMHB, 37 °C, 24 h; highest MIC of three independent experiments in triplicate
How it was run: as §1

E. faecalis (ATCC 29212) = details: Gram-positive; CLSI microdilution, CAMHB, 37 °C, 24 h; highest MIC of three independent experiments in triplicate
How it was run: as §1

[3] = tested on: K. pneumonia (ATCC BAA-2470); details: Gram-negative, carbapenem-resistant; CLSI microdilution, CAMHB, 37 °C, 24 h; highest MIC of three independent experiments in triplicate
How it was run: as §1

[4] = tested on: Klebsiella pneumonia (ATCC 13883)
How it was run: as §1

MRSA (ATCC BAA-1556) = details: for MIC, MRSA (ATCC BAA-1556), Control: MH media without salt ions or serum; for MIC, MRSA (ATCC BAA-1556), Control / MIC, MRSA (ATCC BAA-1556), MgCl2 / MIC, MRSA (ATCC BAA-1556), CaCl2 / MIC, MRSA (ATCC BAA-1556), KCl / MIC, MRSA (ATCC BAA-1556), NH4Cl / MIC, MRSA (ATCC BAA-1556), NaCl / MIC, MRSA (ATCC BAA-1556), FBS (25%): three independent experiments in triplicate; for MIC, MRSA (ATCC BAA-1556): broth microdilution (CLSI), CAMHB, 37 °C, 24 h; for MIC, MRSA (ATCC BAA-1556), MgCl2: media with 1 mM MgCl2; for MIC, MRSA (ATCC BAA-1556), CaCl2: media with 2 mM CaCl2; for MIC, MRSA (ATCC BAA-1556), KCl: media with 4.5 mM KCl; for MIC, MRSA (ATCC BAA-1556), NH4Cl: media with 6 mM NH4Cl; for MIC, MRSA (ATCC BAA-1556), NaCl: media with 150 mM NaCl; for MIC, MRSA (ATCC BAA-1556), FBS (25%): media with 25% fetal bovine serum
How it was run: as §1

[5] = tested on: P. aeruginosa (ATCC 10145); details: ATCC 10145, 24 h
How it was run: as §1

[6] = tested on: P. aeruginosa (ATCC BAA-1744); details: Gram-negative, resistant strain (marked a; imipenem resistant in Table S3); CLSI microdilution, CAMHB, 37 °C, 24 h; highest MIC of three independent experiments in triplicate
How it was run: as §1

[7] = tested on: S. pneumoniae (ATCC 700677); details: Gram-positive, multi-drug resistant (penicillin, tetracycline, erythromycin); CAMHB + 2.5% lysed horse blood, 37 °C, 24 h; highest MIC of three independent experiments in triplicate
How it was run: as §1

[8] = CD spectroscopy, helicity; assay type: physicochemical; parameters: key to Δ[θ]222 induced by TFE / Δ[θ]222 induced by Liposomes: mean residue molar ellipticity, mdeg cm2/(dmol × res); details: for [θ]222 mean residue molar ellipticity, TFE / [θ]222 mean residue molar ellipticity, Liposomes / [θ]222 mean residue molar ellipticity, PBS: CD at 222 nm, 25 °C; for [θ]222 mean residue molar ellipticity, TFE: aqueous buffer containing 50% TFE; for [θ]222 mean residue molar ellipticity, Liposomes / Δ[θ]222 induced by Liposomes: bacterial membrane mimicking liposomes; for [θ]222 mean residue molar ellipticity, Liposomes: peptide:lipid molar ratio 1:1.05; for [θ]222 mean residue molar ellipticity, PBS: phosphate buffer saline pH 7.0; for Δ[θ]222 induced by TFE / Δ[θ]222 induced by Liposomes: difference to PBS; for Δ[θ]222 induced by TFE: 50% TFE; for % of helicity induced by TFE: increase in molar ellipticity at 222 nm in the presence of 50% TFE; for % of helicity induced by Liposomes: increase in molar ellipticity at 222 nm in the presence of liposomes;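 for % of helicity induced by Liposomes: share of the total helicity with liposomes gained over the same peptide in PBS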;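 for % of helicity induced by TFE: share of the total helicity in TFE gained over the same peptide in PBS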
How it was run: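 Ellipticity at 222 nm, converted to mean residue molar ellipticity, was measured at 25 °C (three-scan average, 190–260 nm, 1 mm path) in phosphate buffer pH 7.2, 50% TFE, or liposomes at 75 μM lipid, after blank subtraction. Induced helicity is the percent rise at 222 nm versus buffer.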

[9] = 10^6 CFU/mL, highest MIC of three independent experiments in triplicate

Substance	MIC, Bacillus cereus (ATCC 13061) [1] [µg/mL]	MIC, Bacillus subtilis (ATCC 6633) [2] [µg/mL]	MIC, E. coli (ATCC 25922), FBS (25%) (E. coli (ATCC 25922); ATCC 25922, 24 h) [µg/mL]	MIC, E. coli (ATCC 25922), KCl (E. coli (ATCC 25922); ATCC 25922, 24 h) [µg/mL]	MIC, E. coli (ATCC 25922), NH4Cl (E. coli (ATCC 25922); ATCC 25922, 24 h) [µg/mL]	MIC, E. coli (ATCC 25922), NaCl (E. coli (ATCC 25922); ATCC 25922, 24 h) [µg/mL]	MIC, E. coli (ATCC 25922) (E. coli (ATCC 25922); [9]) [µg/mL]	MIC, E. coli (ATCC 25922) (E. coli (ATCC 25922); value in parentheses (μM)) [µM]	MIC, E. coli (ATCC BAA-2452) (E. coli (ATCC BAA-2452)) [µg/mL]	MIC, E. faecalis (ATCC 29212) (E. faecalis (ATCC 29212)) [µg/mL]	MIC, K. pneumonia (ATCC BAA-2470) [3] [µg/mL]	MIC, MRSA (ATCC BAA-1556), Control (MRSA (ATCC BAA-1556)) [µg/mL]	MIC, MRSA (ATCC BAA-1556) (MRSA (ATCC BAA-1556); [9]) [µg/mL]	MIC, MRSA (ATCC BAA-1556), MgCl2 (MRSA (ATCC BAA-1556)) [µg/mL]	MIC, MRSA (ATCC BAA-1556), CaCl2 (MRSA (ATCC BAA-1556)) [µg/mL]	MIC, MRSA (ATCC BAA-1556), KCl (MRSA (ATCC BAA-1556)) [µg/mL]	MIC, MRSA (ATCC BAA-1556), NH4Cl (MRSA (ATCC BAA-1556)) [µg/mL]	MIC, MRSA (ATCC BAA-1556), NaCl (MRSA (ATCC BAA-1556)) [µg/mL]	MIC, MRSA (ATCC BAA-1556), FBS (25%) (MRSA (ATCC BAA-1556)) [µg/mL]	MIC, MRSA (ATCC BAA-1556) (MRSA (ATCC BAA-1556); value in parentheses (μM)) [µM]	also measured
KWIKKWIKWWKK-NH2 [7b]	6.2	3.1	50	25	25	25	6.2	3.53	6.2	12.5	25	6.2	6.2	6.2	12.5	12.5	12.5	25	25	3.53	MIC, E. coli (ATCC 25922), Control (E. coli (ATCC 25922); ATCC 25922, 24 h): 6.2 µg/mL; MIC, E. coli (ATCC 25922), MgCl2 (E. coli (ATCC 25922); media with 1 mM MgCl2, three independent experiments in triplicate): 12.5 µg/mL; MIC, E. coli (ATCC 25922), CaCl2 (E. coli (ATCC 25922); media with 2 mM CaCl2, three independent experiments in triplicate): 12.5 µg/mL; MIC, Klebsiella pneumonia (ATCC 13883) ([4]; ATCC 13883, 24 h): 25 µg/mL; MIC, P. aeruginosa (ATCC 10145) [5]: 6.2 µg/mL; MIC, P. aeruginosa (ATCC BAA-1744) [6]: 12.5 µg/mL; MIC, S. pneumoniae (ATCC 700677) [7]: 25 µg/mL; [θ]222 mean residue molar ellipticity, TFE [8]: -10800 mdeg cm2/(dmol × res); [θ]222 mean residue molar ellipticity, Liposomes [8]: -12345 mdeg cm2/(dmol × res); [θ]222 mean residue molar ellipticity, PBS [8]: -3016 mdeg cm2/(dmol × res); Δ[θ]222 induced by TFE [8]: -7784; Δ[θ]222 induced by Liposomes [8]: -9328; % of helicity induced by TFE [8]: 72.06%; % of helicity induced by Liposomes [8]: 75.56%
RWLRRWLRWWRR-NH2 [8a]	6.2	3.1	> 50	25	25	> 50	12.5	6.49	12.5	12.5	12.5	6.2	6.2	6.2	6.2	12.5	6.2	12.5	50	3.22	MIC, E. coli (ATCC 25922), CaCl2 (E. coli (ATCC 25922); ATCC 25922, 24 h): 25 µg/mL; MIC, E. coli (ATCC 25922), MgCl2 (E. coli (ATCC 25922); ATCC 25922, 24 h): 50 µg/mL; MIC, E. coli (ATCC 25922), Control (E. coli (ATCC 25922); MH media without salt ions or serum, three independent experiments in triplicate): 12.5 µg/mL; MIC, Klebsiella pneumonia (ATCC 13883) ([4]; Gram-negative, CLSI microdilution, CAMHB, 37 °C, 24 h, highest MIC of three independent experiments in triplicate): 12.5 µg/mL; MIC, P. aeruginosa (ATCC 10145) [5]: 6.2 µg/mL; MIC, P. aeruginosa (ATCC BAA-1744) [6]: 12.5 µg/mL; MIC, S. pneumoniae (ATCC 700677) [7]: 12.5 µg/mL; [θ]222 mean residue molar ellipticity, TFE [8]: -10811 mdeg cm2/(dmol × res); [θ]222 mean residue molar ellipticity, Liposomes [8]: -15616 mdeg cm2/(dmol × res); [θ]222 mean residue molar ellipticity, PBS [8]: -4794 mdeg cm2/(dmol × res); Δ[θ]222 induced by TFE [8]: -6017; Δ[θ]222 induced by Liposomes [8]: -10822; % of helicity induced by TFE [8]: 55.65%; % of helicity induced by Liposomes [8]: 69.30%
